Here are results for 2 molecules from BindingDB's records for doi:10.1124/jpet.103.062794 (Neurosearch, 2004).

For experiment [1], the target named is Glutamate receptor ionotropic, kainate 1 (Homo sapiens, UniProt P39086).
Experiment [2] concerns the target Glutamate receptor ionotropic, kainate 2 (Homo sapiens, UniProt Q13002).

Several values for one entry are separate records, joined by “and”; a condition that tells them apart may be missing. Identical values can stand only once.

Sequence of Glutamate receptor ionotropic, kainate 1 (P39086 whole entry): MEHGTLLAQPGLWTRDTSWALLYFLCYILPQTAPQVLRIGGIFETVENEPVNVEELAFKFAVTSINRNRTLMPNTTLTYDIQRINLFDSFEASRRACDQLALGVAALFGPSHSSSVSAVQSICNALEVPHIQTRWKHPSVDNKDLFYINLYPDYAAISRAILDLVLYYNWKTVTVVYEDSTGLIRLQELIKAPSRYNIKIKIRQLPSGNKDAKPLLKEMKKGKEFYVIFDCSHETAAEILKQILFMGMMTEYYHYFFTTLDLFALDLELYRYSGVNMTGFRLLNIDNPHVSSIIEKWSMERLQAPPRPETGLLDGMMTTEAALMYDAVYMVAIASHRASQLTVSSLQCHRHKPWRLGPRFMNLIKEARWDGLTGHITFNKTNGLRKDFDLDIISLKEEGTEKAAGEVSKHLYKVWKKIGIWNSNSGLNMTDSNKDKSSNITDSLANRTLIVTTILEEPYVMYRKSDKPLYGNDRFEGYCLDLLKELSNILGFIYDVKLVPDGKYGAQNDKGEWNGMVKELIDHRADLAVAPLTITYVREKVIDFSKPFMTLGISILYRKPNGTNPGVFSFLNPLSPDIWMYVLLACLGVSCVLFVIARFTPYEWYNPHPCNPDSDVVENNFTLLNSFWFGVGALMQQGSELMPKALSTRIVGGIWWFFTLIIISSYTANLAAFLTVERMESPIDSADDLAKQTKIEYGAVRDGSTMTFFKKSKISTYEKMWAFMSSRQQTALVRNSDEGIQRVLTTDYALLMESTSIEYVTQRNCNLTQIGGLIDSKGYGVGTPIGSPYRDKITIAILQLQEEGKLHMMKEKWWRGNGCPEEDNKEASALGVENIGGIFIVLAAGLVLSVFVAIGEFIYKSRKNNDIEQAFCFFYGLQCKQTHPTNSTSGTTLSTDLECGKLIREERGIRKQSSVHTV
Sequence of Glutamate receptor ionotropic, kainate 2 (Q13002 whole entry): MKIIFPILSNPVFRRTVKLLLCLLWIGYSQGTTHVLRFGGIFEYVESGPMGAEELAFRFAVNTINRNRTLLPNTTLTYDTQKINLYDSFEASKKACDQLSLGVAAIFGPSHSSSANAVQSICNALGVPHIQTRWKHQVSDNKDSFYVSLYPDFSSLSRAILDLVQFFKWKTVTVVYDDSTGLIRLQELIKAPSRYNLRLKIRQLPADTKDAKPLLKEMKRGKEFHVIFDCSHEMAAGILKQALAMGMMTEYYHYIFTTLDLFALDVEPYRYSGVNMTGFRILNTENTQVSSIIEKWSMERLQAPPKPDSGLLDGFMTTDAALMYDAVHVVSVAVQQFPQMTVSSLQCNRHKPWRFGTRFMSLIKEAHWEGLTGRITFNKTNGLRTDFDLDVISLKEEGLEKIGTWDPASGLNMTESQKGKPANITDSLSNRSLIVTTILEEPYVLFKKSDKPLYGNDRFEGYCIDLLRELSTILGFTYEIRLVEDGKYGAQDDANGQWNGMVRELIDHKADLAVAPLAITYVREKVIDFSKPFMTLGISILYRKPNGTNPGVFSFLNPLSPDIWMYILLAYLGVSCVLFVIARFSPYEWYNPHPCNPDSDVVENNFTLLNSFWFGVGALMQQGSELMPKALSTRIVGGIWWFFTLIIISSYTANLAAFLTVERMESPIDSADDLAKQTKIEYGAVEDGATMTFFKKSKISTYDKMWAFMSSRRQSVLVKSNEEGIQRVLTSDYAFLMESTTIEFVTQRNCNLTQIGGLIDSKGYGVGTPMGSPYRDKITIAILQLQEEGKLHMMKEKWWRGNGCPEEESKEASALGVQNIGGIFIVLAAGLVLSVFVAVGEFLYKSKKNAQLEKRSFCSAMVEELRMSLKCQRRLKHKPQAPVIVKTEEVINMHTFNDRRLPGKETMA

As for `O=C(Nc1cc(NC(=O)c2ccccc2)c(C(=O)O)cc1C(=O)O)c1ccccc1` [NS3763], the inhibition constant (Ki) (usually the equilibrium dissociation constant of an inhibitor or competing ligand from its target) in experiment [1] was > 10 µM and 1.6 µM; in experiment [2], > 30 µM.
Consider `CN1CCc2c(-c3ccc(S(=O)(=O)N(C)C)cc3)cc3c(c2C1)NC(=O)/C3=N\OC(CCO)C(=O)O` (stereo not drawn) [SPD 502], for which, in experiment [2], the Ki was > 10 µM.
